Reference: PubChem BioAssay AID248 (DTP/NCI, 2004)
Where “and” joins values, the source holds several entries; their conditions need not be identical. Identical values can stand only once. Toxic doses and inconclusive results are not listed. Rule as the data show it: active = T/C of 150% or more; inactive = T/C below 125%.

Tested on: L1210 leukemia ip in BDF1 mice, survival T/C
Assay: NCI In Vivo Anticancer Drug Screen. Data for tumor model L1210 Leukemia (intraperitoneal) in B6D2F1 (BDF1) mice
Conditions: higher = longer survival
Outline: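 Transplanted-tumor mice were given test agent; controls received vehicle only. Survival readings from the two groups were divided (treated over control).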

[1] = endpoint: mean survival time, dose: 100.0 mg/kg/injection, schedule: Q04DX003 (ip), vehicle: saline with Tween-80
[2] = endpoint: mean survival time, dose: 200.0 mg/kg/injection, schedule: Q04DX003 (ip), vehicle: saline with Tween-80
[3] = endpoint: mean survival time, dose: 400.0 mg/kg/injection, schedule: Q04DX003 (ip), vehicle: saline with Tween-80
[4] = endpoint: mean survival time, dose: 200.0 mg/kg/injection, schedule: Q01DX009 (ip), vehicle: Klucel (hydroxypropylcellulose) (HPC)
[5] = endpoint: mean survival time, dose: 100.0 mg/kg/injection, schedule: Q01DX001 (ip), vehicle: saline
[6] = endpoint: mean survival time, dose: 200.0 mg/kg/injection, schedule: Q01DX001 (ip), vehicle: saline
[7] = endpoint: mean survival time, dose: 400.0 mg/kg/injection, schedule: Q01DX001 (ip), vehicle: saline

Measured: T/C

COc1ccccc1NC(=O)Nc1ccc(S(N)(=O)=O)cc1
inactive: endpoint: mean survival time, dose: 100.0 mg/kg/injection, schedule: Q01DX001 (ip), vehicle: saline with Tween-80 97 % of control | endpoint: mean survival time, dose: 100.0 mg/kg/injection, schedule: Q01DX009 (ip), vehicle: saline with Tween-80 101 % of control and 106 % of control | endpoint: mean survival time, dose: 100.0 mg/kg/injection, schedule: Q04DX002 (ip), vehicle: saline with Tween-80 98 % of control and 103 % of control | [1] 94 % of control | endpoint: mean survival time, dose: 200.0 mg/kg/injection, schedule: Q01DX001 (ip), vehicle: saline with Tween-80 111 % of control | endpoint: mean survival time, dose: 200.0 mg/kg/injection, schedule: Q01DX009 (ip), vehicle: saline with Tween-80 98 % of control and 116 % of control | endpoint: mean survival time, dose: 200.0 mg/kg/injection, schedule: Q04DX002 (ip), vehicle: saline with Tween-80 104 % of control | [2] 90 % of control | endpoint: mean survival time, dose: 400.0 mg/kg/injection, schedule: Q01DX001 (ip), vehicle: saline with Tween-80 97 % of control | endpoint: mean survival time, dose: 400.0 mg/kg/injection, schedule: Q01DX009 (ip), vehicle: saline with Tween-80 97 % of control and 98 % of control | endpoint: mean survival time, dose: 400.0 mg/kg/injection, schedule: Q04DX002 (ip), vehicle: saline with Tween-80 95 % of control | [3] 100 % of control

O=c1[nH]c2ccccc2c(=O)n1CCCN1CCN(c2cccc(Cl)c2)CC1
inactive: endpoint: mean survival time, dose: 100.0 mg/kg/injection, schedule: Q01DX009 (ip), vehicle: Klucel (hydroxypropylcellulose) (HPC) 108 % of control | endpoint: mean survival time, dose: 100.0 mg/kg/injection, schedule: Q04DX002 (ip), vehicle: Klucel (hydroxypropylcellulose) (HPC) 111 % of control | [4] 108 % of control | endpoint: mean survival time, dose: 200.0 mg/kg/injection, schedule: Q04DX002 (ip), vehicle: Klucel (hydroxypropylcellulose) (HPC) 114 % of control | endpoint: mean survival time, dose: 400.0 mg/kg/injection, schedule: Q01DX009 (ip), vehicle: Klucel (hydroxypropylcellulose) (HPC) 108 % of control | endpoint: mean survival time, dose: 400.0 mg/kg/injection, schedule: Q04DX002 (ip), vehicle: Klucel (hydroxypropylcellulose) (HPC) 104 % of control

COc1ccc(CCN(C)C2CC3CCC2(C)C3(C)C)cc1OC (stereo not given)
inactive: [5] 93 % of control | [6] 96 % of control | [7] 100 % of control

CC1(C(=O)O)CC1(C)C(=O)O (stereo not given)
inactive: [1] 103 % of control | [2] 96 % of control | [3] 92 % of control

NC(=O)C1CCC(=O)N1 (stereo not given)
inactive: endpoint: mean survival time, dose: 100.0 mg/kg/injection, schedule: Q01DX009 (ip), vehicle: saline 93 % of control | endpoint: mean survival time, dose: 100.0 mg/kg/injection, schedule: Q04DX002 (ip), vehicle: saline 104 % of control | endpoint: mean survival time, dose: 200.0 mg/kg/injection, schedule: Q01DX009 (ip), vehicle: saline 101 % of control | endpoint: mean survival time, dose: 200.0 mg/kg/injection, schedule: Q04DX002 (ip), vehicle: saline 98 % of control | endpoint: mean survival time, dose: 400.0 mg/kg/injection, schedule: Q01DX009 (ip), vehicle: saline 93 % of control | endpoint: mean survival time, dose: 400.0 mg/kg/injection, schedule: Q04DX002 (ip), vehicle: saline 91 % of control

CC1OC(OC2C(O)CC(OC3C(O)CC(OC4CCC5(C)C(CCC6C5CCC5(C)C(C7=CC(=O)OC7)CCC65O)C4)OC3C)OC2C)CC(O)C1O (stereo not given)
inactive: endpoint: mean survival time, dose: 1.0 mg/kg/injection, schedule: Q01DX015 (sc), vehicle: steriod suspending solution 93 % of control | endpoint: mean survival time, dose: 2.0 mg/kg/injection, schedule: Q01DX015 (sc), vehicle: steriod suspending solution 98 % of control | endpoint: mean survival time, dose: 4.0 mg/kg/injection, schedule: Q01DX015 (sc), vehicle: steriod suspending solution 101 % of control | endpoint: mean survival time, dose: 8.0 mg/kg/injection, schedule: Q01DX015 (sc), vehicle: steriod suspending solution 102 % of control | endpoint: mean survival time, dose: 10.0 mg/kg/injection, schedule: Q01DX001 (ip), vehicle: saline 106 % of control | endpoint: mean survival time, dose: 16.0 mg/kg/injection, schedule: Q01DX015 (sc), vehicle: steriod suspending solution 105 % of control | endpoint: mean survival time, dose: 20.0 mg/kg/injection, schedule: Q01DX001 (ip), vehicle: saline 105 % of control | endpoint: mean survival time, dose: 32.0 mg/kg/injection, schedule: Q01DX015 (sc), vehicle: steriod suspending solution 101 % of control | endpoint: mean survival time, dose: 40.0 mg/kg/injection, schedule: Q01DX001 (ip), vehicle: saline 103 % of control | endpoint: median survival time, dose: 0.5 mg/kg/injection, schedule: Q01DX005 (iv), vehicle: water 99 % of control | endpoint: median survival time, dose: 0.5 mg/kg/injection, schedule: Q01DX010 (ip), vehicle: methylcellulose (MC) 91 % of control | endpoint: median survival time, dose: 0.5 mg/kg/injection, schedule: Q01DX010 (ip), vehicle: water 99 % of control and 100 % of control | endpoint: median survival time, dose: 1.0 mg/kg/injection, schedule: Q01DX005 (iv), vehicle: water 99 % of control | endpoint: median survival time, dose: 1.0 mg/kg/injection, schedule: Q01DX010 (ip), vehicle: methylcellulose (MC) 102 % of control | endpoint: median survival time, dose: 1.0 mg/kg/injection, schedule: Q01DX010 (ip), vehicle: water 99 % of control and 100 % of control | endpoint: median survival time, dose: 1.0 mg/kg/injection, schedule: Q04DX003 (ip), vehicle: water 99 % of control and 100 % of control | endpoint: median survival time, dose: 1.0 mg/kg/injection, schedule: Q04DX003 (iv), vehicle: water 96 % of control | endpoint: median survival time, dose: 2.0 mg/kg/injection, schedule: Q01DX005 (ip), vehicle: water 95 % of control | endpoint: median survival time, dose: 2.0 mg/kg/injection, schedule: Q01DX005 (iv), vehicle: water 100 % of control | endpoint: median survival time, dose: 2.0 mg/kg/injection, schedule: Q01DX010 (ip), vehicle: methylcellulose (MC) 104 % of control | endpoint: median survival time, dose: 2.0 mg/kg/injection, schedule: Q01DX010 (ip), vehicle: water 105 % of control and 111 % of control | endpoint: median survival time, dose: 2.0 mg/kg/injection, schedule: Q04DX003 (ip), vehicle: water 95 % of control | endpoint: median survival time, dose: 2.0 mg/kg/injection, schedule: Q04DX003 (iv), vehicle: water 92 % of control | endpoint: median survival time, dose: 4.0 mg/kg/injection, schedule: Q01DX005 (ip), vehicle: water 109 % of control | endpoint: median survival time, dose: 4.0 mg/kg/injection, schedule: Q01DX005 (iv), vehicle: water 106 % of control | endpoint: median survival time, dose: 4.0 mg/kg/injection, schedule: Q01DX010 (ip), vehicle: methylcellulose (MC) 103 % of control | endpoint: median survival time, dose: 4.0 mg/kg/injection, schedule: Q01DX010 (ip), vehicle: water 102 % of control and 105 % of control | endpoint: median survival time, dose: 4.0 mg/kg/injection, schedule: Q04DX003 (ip), vehicle: water 100 % of control | endpoint: median survival time, dose: 4.0 mg/kg/injection, schedule: Q04DX003 (iv), vehicle: water 93 % of control | endpoint: median survival time, dose: 8.0 mg/kg/injection, schedule: Q01DX005 (ip), vehicle: water 113 % of control | endpoint: median survival time, dose: 8.0 mg/kg/injection, schedule: Q01DX005 (iv), vehicle: water 86 % of control | endpoint: median survival time, dose: 8.0 mg/kg/injection, schedule: Q01DX010 (ip), vehicle: water 102 % of control and 105 % of control | endpoint: median survival time, dose: 8.0 mg/kg/injection, schedule: Q04DX003 (ip), vehicle: water 86 % of control | endpoint: median survival time, dose: 8.0 mg/kg/injection, schedule: Q04DX003 (iv), vehicle: water 93 % of control | endpoint: median survival time, dose: 16.0 mg/kg/injection, schedule: Q01DX010 (ip), vehicle: water 93 % of control and 94 % of control | endpoint: median survival time, dose: 16.0 mg/kg/injection, schedule: Q04DX003 (ip), vehicle: water 93 % of control | endpoint: median survival time, dose: 16.0 mg/kg/injection, schedule: Q04DX003 (iv), vehicle: water 68 % of control

Cc1c(NC(=O)Nc2cccc(C(F)(F)F)c2)c(=O)n(-c2ccccc2)n1C
inactive: endpoint: mean survival time, dose: 25.0 mg/kg/injection, schedule: Q01DX009 (ip), vehicle: Klucel (hydroxypropylcellulose) (HPC) 88 % of control | endpoint: mean survival time, dose: 50.0 mg/kg/injection, schedule: Q01DX009 (ip), vehicle: Klucel (hydroxypropylcellulose) (HPC) 86 % of control | [4] 96 % of control

CCCCCCCCCCCCCCSCCO
inactive: endpoint: mean survival time, dose: 100.0 mg/kg/injection, schedule: Q01DX009 (ip), vehicle: carboxymethylcellulose (CMC) 103 % of control | endpoint: mean survival time, dose: 200.0 mg/kg/injection, schedule: Q01DX009 (ip), vehicle: carboxymethylcellulose (CMC) 102 % of control

O=C(Nc1ccc(Br)cc1)c1ccc(C(=O)Nc2ccc(Br)cc2)cc1
inactive: [5] 94 % of control | [6] 100 % of control | [7] 94 % of control
